Legend:
FXa = FXa (Homo sapiens, UniProt P00742); test: Related protease inhibition: FXa, fluorogenic substrate; format: biochemical; settings: fluorogenic substrate at Km, 25° C.; H1-H3 = % activity at 40 μM
Method: Human serine protease enzyme Plasma Kallikrein, KLK1, FXa, Plasmin, Thrombin and Trypsin were assayed for enzymatic activity using an appropriate fluorogenic substrate at Km concentration, FXIa at fixed substrate concentration of 100 μM and various concentrations of the test compound.

[1] = target: T1, Human Factor XIIa (hFXIIa) (Homo sapiens, UniProt P00748); test: Determination of Human Factor XIIa (hFXIIa) inhibition, fluorogenic substrate IC50 assay; format: biochemical; settings: fluorogenic substrate H-DPro-Phe-Arg-AFC at Km, 25° C., read-out: Human FXIIa IC50
T1 construct: purchased Enzyme Research Laboratories
T1 sequence (P00748 373-615 limits assumed): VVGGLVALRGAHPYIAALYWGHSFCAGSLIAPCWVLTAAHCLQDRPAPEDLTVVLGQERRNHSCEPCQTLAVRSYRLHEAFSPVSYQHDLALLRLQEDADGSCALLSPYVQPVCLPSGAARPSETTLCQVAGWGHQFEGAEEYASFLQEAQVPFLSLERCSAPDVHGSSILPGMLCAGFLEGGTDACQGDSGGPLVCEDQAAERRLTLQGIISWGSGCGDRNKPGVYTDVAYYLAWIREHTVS
T1 sequence (P00748 20-372 partner limits assumed): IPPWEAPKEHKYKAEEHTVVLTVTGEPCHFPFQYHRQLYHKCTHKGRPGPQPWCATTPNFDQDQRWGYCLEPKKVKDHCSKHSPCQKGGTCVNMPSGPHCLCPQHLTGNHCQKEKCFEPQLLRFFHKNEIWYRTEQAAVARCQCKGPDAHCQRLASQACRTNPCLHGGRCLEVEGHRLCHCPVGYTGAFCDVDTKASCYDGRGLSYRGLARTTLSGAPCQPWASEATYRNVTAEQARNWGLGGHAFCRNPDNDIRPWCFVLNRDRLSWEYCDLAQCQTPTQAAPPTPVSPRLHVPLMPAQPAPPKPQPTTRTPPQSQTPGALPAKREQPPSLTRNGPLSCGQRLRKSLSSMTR
Method: Determination of Human Factor XIIa (hFXIIa) inhibition
The Km for the cleavage of the substrate by hFXIIa was determined by standard transformation of the Michaelis-Menten equation, with subsequent inhibition assays performed at substrate Km concentration.

FXa, sequence (P00742 235-488 limits assumed): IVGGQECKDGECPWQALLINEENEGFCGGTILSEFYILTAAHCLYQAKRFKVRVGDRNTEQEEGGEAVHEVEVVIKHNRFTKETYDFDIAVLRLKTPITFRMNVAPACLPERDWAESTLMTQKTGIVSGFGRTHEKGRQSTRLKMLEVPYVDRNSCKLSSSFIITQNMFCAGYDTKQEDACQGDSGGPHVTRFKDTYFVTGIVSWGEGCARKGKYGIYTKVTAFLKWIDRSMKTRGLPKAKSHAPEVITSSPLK
FXa, sequence (P00742 41-179 partner limits assumed): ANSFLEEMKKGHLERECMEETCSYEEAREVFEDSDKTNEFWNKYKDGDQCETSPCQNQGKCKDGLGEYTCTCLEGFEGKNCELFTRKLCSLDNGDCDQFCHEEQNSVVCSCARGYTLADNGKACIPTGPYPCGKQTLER

Row | IC50 (FXa) | IC50 [1] | Compound
1 | > 40 µM | 3 to 10 µM | O=C(NCC1CC1)c1nn(-c2cccc(Cl)c2)c2c1CCN(c1ccc3c(c1)CN(C(=O)CO)CC3)C2=O [Example 1114, 1-(3-chlorophenyl)-N-(cyclopropylmethyl)-6-(2-(2-hydroxyacetyl)-1,2,3,4-tetrahydroisoquinolin-7-yl)-7-oxo-4,5,6,7-tetrahydro-1H-pyrazolo[3,4-c]pyridine-3-carboxamide]
2 | > 40 µM | 0.1 to 0.3 µM | O=C(NCC1CC1)c1nn(-c2cccc(Cl)c2)c2c1CCN(c1ccc3c(c1)C(=O)N(CCO)CC3)C2=O [Example 1216, 1-(3-chlorophenyl)-N-(cyclopropylmethyl)-6-(2-(2-hydroxyethyl)-1-oxo-1,2,3,4-tetrahydroisoquinolin-7-yl)-7-oxo-4,5,6,7-tetrahydro-1H-pyrazolo[3,4-c]pyridine-3-carboxamide]
3 | > 40 µM | 1 to 3 µM | CCNC(=O)c1nn(-c2cccc(Cl)c2)c2c1CCN(c1cccc(N3CCN(C)C3=O)c1)C2=O [Example 1364, 1-(3-chlorophenyl)-N-ethyl-6-(3-(3-methyl-2-oxoimidazolidin-1-yl)phenyl)-7-oxo-4,5,6,7-tetrahydro-1H-pyrazolo[3,4-c]pyridine-3-carboxamide]
4 | > 40 µM | 3 to 10 µM | CCNC(=O)c1nn(-c2cccc(Cl)c2)c2c1CCN(c1cccc(N3CCOC3=O)c1)C2=O [Example 1362, 1-(3-chlorophenyl)-N-ethyl-7-oxo-6-(3-(2-oxooxazolidin-3-yl)phenyl)-4,5,6,7-tetrahydro-1H-pyrazolo[3,4-c]pyridine-3-carboxamide]
5 | > 40 µM | 0.1 to 0.3 µM | O=C(NCC1CC1)c1nn(-c2cccc(Cl)c2)c2c1CCN(c1ccc3c(c1)C(=O)N(CCF)CC3)C2=O [Example 1253, 1-(3-chlorophenyl)-N-(cyclopropylmethyl)-6-(2-(2-fluoroethyl)-1-oxo-1,2,3,4-tetrahydroisoquinolin-7-yl)-7-oxo-4,5,6,7-tetrahydro-1H-pyrazolo[3,4-c]pyridine-3-carboxamide]
6 | > 10 µM | 0.3 to 1 µM | O=C(NCC1CC1)c1nn(-c2cccc(Cl)c2)c2c1CCN(c1cccc(CN3CCCCC3)c1)C2=O [Example 1002, 1-(3-chlorophenyl)-N-(cyclopropylmethyl)-7-oxo-6-(3-(piperidin-1-ylmethyl)phenyl)-4,5,6,7-tetrahydro-1H-pyrazolo[3,4-c]pyridine-3-carboxamide]
7 | 10 to 40 µM | 0.1 to 0.3 µM | CN1CCCc2ccc(N3CCc4c(C(=O)NCC5CC5)nn(-c5cccc(Cl)c5)c4C3=O)cc2C1=O [Example 1239, 1-(3-chlorophenyl)-N-(cyclopropylmethyl)-6-(2-methyl-1-oxo-2,3,4,5-tetrahydro-1H-benzo[c]azepin-8-yl)-7-oxo-4,5,6,7-tetrahydro-1H-pyrazolo[3,4-c]pyridine-3-carboxamide]

Second part, the molecule before the results:

Row | Compound | IC50 (FXa) | IC50 [1]
8 | CCCN1CCc2ccc(N3CCc4c(C(=O)NCc5cnccc5C)nn(-c5cccc(Cl)c5)c4C3=O)cc2C1=O [Example 1209, 1-(3-chlorophenyl)-N-((4-methylpyridin-3-yl)methyl)-7-oxo-6-(1-oxo-2-propyl-1,2,3,4-tetrahydroisoquinolin-7-yl)-4,5,6,7-tetrahydro-1H-pyrazolo[3,4-c]pyridine-3-carboxamide] | > 40 µM | 0.1 to 0.3 µM
9 | Cc1ccncc1CNC(=O)c1nn(-c2cccc(Cl)c2)c2c1CCN(c1cccc(N3CCCCC3=O)c1)C2=O [Example 1287, 1-(3-chlorophenyl)-N-((4-methylpyridin-3-yl)methyl)-7-oxo-6-(3-(2-oxopiperidin-1-yl)phenyl)-4,5,6,7-tetrahydro-1H-pyrazolo[3,4-c]pyridine-3-carboxamide] | 10 to 40 µM | 0.3 to 1 µM
10 | COc1cncc(CNC(=O)c2nn(-c3cccc(Cl)c3)c3c2CCN(c2ccc4c(c2)C(=O)N(C)CC4)C3=O)c1 [Example 1213, 1-(3-chlorophenyl)-N-((5-methoxypyridin-3-yl)methyl)-6-(2-methyl-1-oxo-1,2,3,4-tetrahydroisoquinolin-7-yl)-7-oxo-4,5,6,7-tetrahydro-1H-pyrazolo[3,4-c]pyridine-3-carboxamide] | 3 to 10 µM | 0.1 to 0.3 µM
11 | Cc1cc(CNC(=O)c2nn(-c3cccc(Cl)c3)c3c2CCN(c2ccc4c(c2)C(=O)N(C)CC4)C3=O)n(C)n1 [Example 1264, 1-(3-chlorophenyl)-N-((1,3-dimethyl-1H-pyrazol-5-yl)methyl)-6-(2-methyl-1-oxo-1,2,3,4-tetrahydroisoquinolin-7-yl)-7-oxo-4,5,6,7-tetrahydro-1H-pyrazolo[3,4-c]pyridine-3-carboxamide] | 10 to 40 µM | 0.3 to 1 µM
12 | Cc1cc(CNC(=O)c2nn(-c3cccc(Cl)c3)c3c2CCN(c2ccc4c(c2)C(=O)N(CCCO)CCO4)C3=O)nn1C [Example 1377, 1-(3-chlorophenyl)-N-((1,5-dimethyl-1H-pyrazol-3-yl)methyl)-6-(4-(3-hydroxypropyl)-5-oxo-2,3,4,5-tetrahydrobenzo[f][1,4]oxazepin-7-yl)-7-oxo-4,5,6,7-tetrahydro-1H-pyrazolo[3,4-c]pyridine-3-carboxamide] | 3 to 10 µM | 0.01 to 0.1 µM
13 | Cc1ccncc1CNC(=O)c1nn(-c2cccc(C(F)(F)F)c2)c2c1CCN(c1ccc3c(c1)CN(CCO)CC3)C2=O [Example 2009, 6-(2-(2-hydroxyethyl)-1,2,3,4-tetrahydroisoquinolin-7-yl)-N-((4-methylpyridin-3-yl)methyl)-7-oxo-1-(3-(trifluoromethyl)phenyl)-4,5,6,7-tetrahydro-1H-pyrazolo[3,4-c]pyridine-3-carboxamide] | > 40 µM | 0.1 to 0.3 µM
14 | CNC(=O)c1nn(-c2cccc(Cl)c2)c2c1CCN(c1ccc3c(c1)C(=O)N(C)CC3)C2=O [Example 1334, 1-(3-chlorophenyl)-N-methyl-6-(2-methyl-1-oxo-1,2,3,4-tetrahydroisoquinolin-7-yl)-7-oxo-4,5,6,7-tetrahydro-1H-pyrazolo[3,4-c]pyridine-3-carboxamide] | > 40 µM | 0.3 to 1 µM
15 | CN1CCc2ccc(N3CCc4c(C(=O)NCc5cc[nH]n5)nn(-c5cccc(Cl)c5)c4C3=O)cc2C1=O [Example 1245, N-((1H-pyrazol-3-yl)methyl)-1-(3-chlorophenyl)-6-(2-methyl-1-oxo-1,2,3,4-tetrahydroisoquinolin-7-yl)-7-oxo-4,5,6,7-tetrahydro-1H-pyrazolo[3,4-c]pyridine-3-carboxamide] | > 40 µM | 0.1 to 0.3 µM
16 | O=C(NCc1cncc(F)c1)c1nn(-c2cccc(Cl)c2)c2c1CCN(c1ccc3c(c1)CN(CCO)CC3)C2=O [Example 1137, 1-(3-chlorophenyl)-N-((5-fluoropyridin-3-yl)methyl)-6-(2-(2-hydroxyethyl)-1,2,3,4-tetrahydroisoquinolin-7-yl)-7-oxo-4,5,6,7-tetrahydro-1H-pyrazolo[3,4-c]pyridine-3-carboxamide] | 10 to 40 µM | 0.01 to 0.1 µM
17 | CCN1CCc2ccc(N3CCc4c(C(=O)NCc5cc(C6CC6)n[nH]5)nn(-c5cccc(Cl)c5)c4C3=O)cc2C1 [Example 1150, 1-(3-chlorophenyl)-N-((3-cyclopropyl-1H-pyrazol-5-yl)methyl)-6-(2-ethyl-1,2,3,4-tetrahydroisoquinolin-7-yl)-7-oxo-4,5,6,7-tetrahydro-1H-pyrazolo[3,4-c]pyridine-3-carboxamide] | 3 to 10 µM | 0.01 to 0.1 µM
18 | Cc1cc(C)c(CNC(=O)c2nn(-c3cccc(Cl)c3)c3c2CCN(c2ccc4c(c2)C(=O)N(C)CC4)C3=O)cn1 [Example 1189, 1-(3-chlorophenyl)-N-((4,6-dimethylpyridin-3-yl)methyl)-6-(2-methyl-1-oxo-1,2,3,4-tetrahydroisoquinolin-7-yl)-7-oxo-4,5,6,7-tetrahydro-1H-pyrazolo[3,4-c]pyridine-3-carboxamide] | > 40 µM | 0.01 to 0.1 µM
19 | Cc1ccncc1CNC(=O)c1nn(-c2cccc(Cl)c2F)c2c1CCN(c1ccc3c(c1)CN(CCO)CC3)C2=O [Example 2002, 1-(3-Chloro-2-fluorophenyl)-6-(2-(2-hydroxyethyl)-1,2,3,4-tetrahydroisoquinolin-7-yl)-N-((4-methylpyridin-3-yl)methyl)-7-oxo-4,5,6,7-tetrahydro-1H-pyrazolo[3,4-c]pyridine-3-carboxamide] | > 40 µM | 0.01 to 0.1 µM
20 | CCNC(=O)c1nn(-c2cccc(C)c2F)c2c1CCN(c1ccc3c(c1)C(=O)N(C)CC3)C2=O [Example 2032, N-ethyl-1-(2-fluoro-3-methylphenyl)-6-(2-methyl-1-oxo-1,2,3,4-tetrahydroisoquinolin-7-yl)-7-oxo-4,5,6,7-tetrahydro-1H-pyrazolo[3,4-c]pyridine-3-carboxamide] | > 40 µM | 0.3 to 1 µM

From US20260132132A1, “3A,4,5,6-TETRAHYDRO-1 H-PYRAZOLO[3,4-C]PYRIDIN-7(7AH)-ONE DERIVATIVES AS FACTOR XIIA INHIBITORS” (KALVISTA PHARMACEUTICALS LIMITED, priority 2022, published 2026)
